Test results from paper PMC10536132, “Arginine Gemini-Based Surfactants for Antimicrobial and Antibiofilm Applications: Molecular Interactions, Skin-Related Anti-Enzymatic Activity and Cytotoxicity” (Molecules, 2023).
Like-named read-outs stand apart in the source and are kept apart here. Marks after values point to notes of the source that are not given here.

Assays:
[1] = molecular target: porcine pancreatic elastase (Sus scrofa, UniProt P00772); test: Elastase inhibitory assay; type: biochemical; settings: 40 µL of 1000 µg/mL stock; EGCG 250 μM
Description: The elastase inhibition was tested according to the method described by […] et al.. First, a stock solution of each surfactant at 1000 μg/mL was prepared in sterile ultrapure water. A stock solution of porcine pancreatic elastase at 3.33 mg/mL in sterile ultrapure water was also prepared. The substrate […] (Ala) 3-p-nitroanilide was dissolved in 0.2 mM Tris-HCl buffer solution (pH 8.0). The samples (40 μL) were then diluted and incubated together with the enzyme for 15 min prior to the substrate addition. Negative control was sterile ultrapure water, while EGCG (250 μM or 0.114 mg/mL) was used as the positive control. The absorbance at λ = 410 nm was measured immediately after the substrate addition and continuously during the next 2 h using an Elx800 Microplate Reader (Biotek®). […] The anti-elastase activity (in %), determined in triplicate, was calculated according to the following equation:(2) Elastase inhibitory activity %=A1-A2/A1×100 where A1 and A2 represent the absorbance in the absence and presence of the testing samples, respectively.

[2] = Cell viability, NRU assay; type: cell-based, human; settings: human, HaCaT cells (immortal human keratinocytes); NRU, HaCaT, surfactant in solution at 35.6 µg/mL, 24 h; read-out: cellular viability
Description: (§1) The immortal human keratinocyte (HaCaT) and the squamous cell carcinoma (A431) were obtained from Celltec, University of Barcelona. The cells were grown in DMEM medium (4.5 g/L glucose) supplemented with 10% (v/v) FBS, 2 mM L-glutamine, 100 U/mL of penicillin and 100 μg/mL of streptomycin at 37 °C under 5% CO2. Cells were routinely cultured in 75 cm^2 culture flasks and were trypsinized using trypsin-EDTA when reached approximately 80% of confluence.
(§2) HaCaT cells (1 × 10^5 cells/mL) and A431 cells (5 × 10^4 cells/mL) were grown at the defined densities into the central 60 wells of a 96-well microplate. Cells were incubated for 24 h under 5% CO2 at 37 °C. The medium was then removed and the cells were incubated with the surfactants (100 μL), previously diluted 1:1 (v/v), reaching a concentration of […] in DMEM medium supplemented with 5% FBS using two different colorimetric methods for quantification, as follows.
(§3) The accumulation of the neutral red dye in the lysosomes of viable, undamaged cells constitutes the basis of the neutral red uptake (NRU) assay. After the cells were incubated for 24 h with the corresponding systems at 35.6 µg/mL, the medium was removed and the surfactants´ solutions were incubated for 3 h with the NRU dye solution (50 μg/mL) dissolved in the medium without FBS and phenol red (Lonza). Cells were then washed with sterile PBS, followed by the addition of 100 μL of a solution containing 50% ethanol absolute and 1% acetic acid in distilled water to extract the non-adhered dye. The microplates were then stirred for 5 min at 25 °C to promote the dissolution. Finally, the absorbance of the resulting solutions was measured at λ = 550 nm using a Bio-Rad 550 microplate reader (Hercules, CA, USA).

[3] = set-up: method as in doi:10.1021/la981295l; settings: cited from earlier work
[4] = Cell viability, NRU assay; type: cell-based; settings: human, A431 cells (squamous cell carcinoma), A431, surfactant in solution at 35.6 µg/mL, read-out: cellular viability
Description: as §1, §2, §3

[5] = test system: bovine hyaluronidase; test: Hyaluronidase inhibitory activity; type: biochemical; settings: negative inhibition values
Description: The hyaluronidase inhibitory activity was performed according to the method used by Altinyay et al. with some modifications. Briefly, a work solution containing bovine hyaluronidase (7900 units/mL) in 0.1 M acetate buffer (pH 3.6) was prepared. Fifty microliters of the work solution were mixed 1:1 with the surfactants’ solution in 5% DMSO. For the negative control, 50 μL of 5% DMSO was used, while EGCG was used as positive control. After 20 min of incubation at 37 °C, 50 μL of calcium chloride (12.5 mM) was added to the mixture and again incubated for 20 min at 37 °C. At that point, 250 μL sodium hyaluronate (1.2 mg/mL) was added and incubated for 40 min at 37 °C. After incubation, the mixture was treated with 50 μL of 0.4 M NaOH and 100 μL of 0.2 M sodium borate and then incubated for 3 min in a boiling water bath. After cooling to room temperature, 1.4 mL of p-dimethylaminobenzaldehyde solution was added to the reaction mixture, being further incubated at 37 °C for 20 min. The resulting colored solution was measured at λ = 585 nm (PerkinElmer-Lambda 35, Brazil). The hyaluronidase inhibitory activity of each sample was calculated according to the following formula:(3) Hyaluronidase inhibitory activity %=A1−A2/A1×100 where A1 and A2 represent the absorbance in the absence and presence of the testing sample, respectively.

[6] = set-up: method as in doi:10.1021/la981295l; settings: cited from earlier work; remark: listed apart in the source
[7] = Apparent pKa by direct titration with NaOH; type: physicochemical; settings: aqueous solution, concentration above the minimum aggregation concentration; pH at semi-equivalence point
Description: In order to determine the ionization state of these gemini surfactants at the pH used to investigate their biological properties, the apparent acid pKa was determined for each of them. The pKap value has been determined by means of a direct titration with NaOH of an aqueous solution of each compound. The surfactant concentrations used were in all cases higher than the minimum aggregation concentration, thus avoiding possible deviations in the pK value due to the monomer–aggregate balance. The pKap values can be estimated from the pH at the semi-equivalence point that is reached when the molar ratio of protonated and non-protonated species is 1:1. In these conditions, we have that the pH = pKa.
The pKa value of each compound has been determined by means of a direct titration with NaOH of an aqueous solution of each compound. The pH was measured using the pH electrode Thermo Electron Corporation ORION 8103SC and the temperature was controlled by a thermostatic bath, Heto CBN 8-30. The pKa values can be estimated from the pH at the semi-equivalence point, which contains a 1:1 molar ratio of protonated and non-protonated species; at this point, pH = pKap.

[8] = set-up: method as in doi:10.1021/la981295l; settings: cited from earlier work; remark: listed apart in the source

Chain of porcine pancreatic elastase (P00772 27-266): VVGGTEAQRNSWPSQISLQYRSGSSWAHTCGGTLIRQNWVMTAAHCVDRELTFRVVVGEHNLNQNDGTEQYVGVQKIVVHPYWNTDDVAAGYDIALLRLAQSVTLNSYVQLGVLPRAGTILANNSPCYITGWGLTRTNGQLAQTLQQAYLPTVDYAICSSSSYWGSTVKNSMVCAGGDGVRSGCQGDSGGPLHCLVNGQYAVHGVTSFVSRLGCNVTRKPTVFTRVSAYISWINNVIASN

## CCCCCCCCCCCC(=O)NC(CCCNC(=N)N)C(=O)NCCCCCCCCCNC(=O)C(CCCNC(=N)N)NC(=O)CCCCCCCCCCC (stereo not drawn) [C9(LA)2, Bis (N^α-lauroyl arginine 1,3-nonane) diamide]
[1]
  anti-elastase activity (inhibition): 15.9%
[2]
  viability at 24 h, 35.6 µg/mL: 60.7%
[3]
  CMC (mM) Fluorescence: 0.3 * mM
[4]
  viability at 24 h, 35.6 µg/mL: 60.7%
[5]
  increase of hyaluronidase enzymatic activity: 29.9%
[6]
  CMC (mM) Conductivity: 0.3 * mM
[7]
  pKap: 9.4
[8]
  CMC (mM) Surface Tension: 0.003 * mM
[8]; surface tension at the cmc
  γcmc: 34 * mN/m
